# Measurements as given in ChEMBL document CHEMBL1141952, “Conformationally restricted analogs of Combretastatin A-4 derived from SU5416” (Bioorg Med Chem Lett, 2005).
# Columns and labels:
# MCF7 = assay: Antiproliferative activity against estrogen-dependent breast cancer MCF7 cell line by MTS assay; assay type: functional, cell-based; details: Homo sapiens
# Tubulin = Tubulin (Sus scrofa, UniProt P02554+P02550); assay: Inhibition of porcine brain tubulin polymerization by GTP-induced assembly
# MDA-MB-231 = assay: Antiproliferative activity against estrogen-independent breast cancer MDA-MB-231 cell line by MTS assay; assay type: functional, cell-based; details: Homo sapiens
# PC-3 = assay: Antiproliferative activity against androgen-independent prostate cancer PC3 cell line by MTS assay; assay type: functional, cell-based; details: Homo sapiens
Compound,IC50 (MCF7) [µM],IC50 (Tubulin) [µM],IC50 (MDA-MB-231) [µM],IC50 (PC-3) [µM]
COc1ccc2c(c1)NC(=O)/C2=C/c1cccc(O)c1,0.39,9.1,1.4,0.54
COc1cc([C@@H]2c3cc4c(cc3[C@H](O)[C@H]3COC(=O)[C@H]23)OCO4)cc(OC)c1OC [PODOFILOX],,,0.008,0.013
O=C1Nc2cc(O)ccc2/C1=C\c1ccc(O)cc1,19.7,> 40,9.4,44.7
O=C1Nc2cc(O)ccc2/C1=C\c1cccc(O)c1,8.6,> 40,4.3,19.5
O=C1Nc2ccccc2/C1=C\c1ccc(O)cc1,25.7,> 40,17.5,> 50
COc1ccc2c(c1)NC(=O)/C2=C/c1cc(OC)c(OC)c(OC)c1,0.0007,4.5,0.0009,0.0082
COc1ccc2c(c1)NC(=O)/C2=C/c1ccc(O)cc1,0.23,18,2.6,0.64
O=C1Nc2ccccc2/C1=C\c1cccc(O)c1,31.4,> 40,16.9,> 50
